# Reference: PubChem BioAssay (NCI)
# Where “and” joins values, the source holds several entries; their conditions need not be identical. Equal values may be shown once.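 Tested at 5 concentrations; 48 h exposure; 96-well plates; endpoints linearly interpolated, else capped at highest concentration. Abbreviation: GI50, concentration required for 50% inhibition of growth. TGI: concentration producing complete growth inhibition.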
# Tested on: SK-MEL-5 melanoma
# Assay: growth of human tumour cells (NCI), 48 h
row,SMILES,TGI [µM]
1,O=C(CCC(=O)c1ccc(Cl)cc1)NO,> 100
2,COc1c(C)c(C/C=C(\C)CCCCO[Si](c2ccccc2)(c2ccccc2)C(C)(C)C)c(OC)c(OC)c1OC,38.6
3,CN1CCN([C@H]2C[C@H]3[C@@H]4CC=C5C[C@@H](O)CC[C@]5(C)[C@H]4CC[C@]3(C)C2=O)CC1,> 100
4,COc1ccc(C2c3cc4c(cc3OC(NNS(=O)(=O)c3ccc(C)cc3)C2C)OCO4)cc1 (configuration not stated),> 100
5,CNC(=O)OCC1=C(COC(=O)NC)C(C)N(c2ccc(OC)cc2)C1 (configuration not stated),> 100
6,CCC12C=CCN3CCC4(C(=C(C(=O)OC)[C@@H]1O)Nc1ccccc14)C32 (some centres not stated),3.45
7,O=C(O)CN(CC(=O)O)C1CCCCC1N(CC(=O)O)CC(=O)NCCN=C=S (configuration not stated),> 100
8,Cc1nc(C(N)=S)sc1/C(CC(=O)C(=O)Nc1cccc2ccc(O)cc12)=N\NC(=O)c1ccncc1,> 100
9,Cc1cc(O)c2c(=O)c3ccccc3[nH]c2c1,31.1
10,N=c1n(C(=O)N2CCCC2)c2cc(Cl)ccc2n1C1=NCCN1,> 100
11,COc1nc(N)c(C(=O)CCl)c(=O)n1C,28.5
12,[N-]=[N+]=Nc1cc(=O)oc2ccccc12,> 100
13,Nc1cccc2cc(Cl)cnc12,> 100
14,C=C1c2nc3ccccc3n2C=C(c2ccccc2)N1c1ccc([N+](=O)[O-])cc1,40.8
15,Cc1ccccc1-n1c(=O)c2ncn(CCCl)c2n(-c2ccccc2C)c1=S,> 100

# Tested on: U251 CNS
# Assay: growth of human tumour cells (NCI), 48 h
SMILES,TGI,GI50 [µM]
CC(=O)Nc1ccc(-c2nnc(SCC(=O)Nc3ccc([N+](=O)[O-])cc3)o2)cc1,28 µM,–
N.N.N.N.O=[N+]([O-])[O-].[Co+3].[N-]=[N+]=[N-].[N-]=[N+]=[N-],> 100 µM,–
COC(=O)C1CCC(=O)N1C(c1ccccc1)c1ccc(OC)c(OC)c1 (configuration not stated),> 100 µM,–
Oc1cccc2c(Cl)ccnc12,22 µM,–
Cc1cccc(/C=N/NC(=S)Nc2ccccc2)n1,> 54.9 µM,–
N#CC1=C(N)N(c2ccccc2)C(c2ccco2)C1(C#N)C#N (configuration not stated),43 µM,–
Cc1cc(=O)[nH]c(NN2C(Cl)C(=O)C2c2ccccc2O)n1 (configuration not stated),> 100 µM,–
CC(C)c1ccc(/C=C2/C=C(c3ccc4ccccc4c3)OC2=O)cc1,> 100 µM,–
COc1ccc(/C=C2\CCC(C)C3=C2NC(=S)NC3c2ccc(OC)c(OC)c2)cc1OC (configuration not stated),> 31.6 µM,–
COc1ccc2c(=O)c(O)c(-c3ccc(OC)c(OC)c3)oc2c1,> 100 µM,–
COc1ccc(C(OCC2OC(n3cc(C)c(=O)[nH]c3=O)CC2n2cc(Cn3cc(I)c(=O)[nH]c3=O)nn2)(c2ccccc2)c2ccccc2)cc1 (configuration not stated),> 100 µM,–
C=C(C1=CC(=O)C(C)(C)O1)[C@@H]1CC=C([C@@H]2CC[C@H]3[C@@]2(C)CC[C@H]2C(C)(C)C(=O)[C@H](O)C[C@]32C)[C@H](O)O1,3.06 µM,–
CC1=CC2C(O1)C1C(=O)C=CC(=O)C1=CC2[N+](=O)[O-] (configuration not stated),36.3 µM,–
C=C(Br)C(C)(Cl)CCC(Br)C(C)(C)Cl (configuration not stated),> 100 µM,–
Cc1c2cnccc2c(C)c2c1c1ccccc1n2CCCN,0.911 µM and 0.523 µM,0.0696
O=C(CCC(=O)c1ccc(Cl)cc1)NO,> 100 µM,–
COc1c(C)c(C/C=C(\C)CCCCO[Si](c2ccccc2)(c2ccccc2)C(C)(C)C)c(OC)c(OC)c1OC,> 46.4 µM,–
CN1CCN([C@H]2C[C@H]3[C@@H]4CC=C5C[C@@H](O)CC[C@]5(C)[C@H]4CC[C@]3(C)C2=O)CC1,> 100 µM,–
COc1ccc(C2c3cc4c(cc3OC(NNS(=O)(=O)c3ccc(C)cc3)C2C)OCO4)cc1 (configuration not stated),> 100 µM,–
CNC(=O)OCC1=C(COC(=O)NC)C(C)N(c2ccc(OC)cc2)C1 (configuration not stated),> 100 µM,–
CCC12C=CCN3CCC4(C(=C(C(=O)OC)[C@@H]1O)Nc1ccccc14)C32 (some centres not stated),5.52 µM,–
O=C(O)CN(CC(=O)O)C1CCCCC1N(CC(=O)O)CC(=O)NCCN=C=S (configuration not stated),> 100 µM,–
Cc1nc(C(N)=S)sc1/C(CC(=O)C(=O)Nc1cccc2ccc(O)cc12)=N\NC(=O)c1ccncc1,> 100 µM,–
Cc1cc(O)c2c(=O)c3ccccc3[nH]c2c1,> 100 µM,–
N=c1n(C(=O)N2CCCC2)c2cc(Cl)ccc2n1C1=NCCN1,> 100 µM,–
COc1nc(N)c(C(=O)CCl)c(=O)n1C,29.9 µM,–
[N-]=[N+]=Nc1cc(=O)oc2ccccc12,> 100 µM,–
Nc1cccc2cc(Cl)cnc12,> 100 µM,–
C=C1c2nc3ccccc3n2C=C(c2ccccc2)N1c1ccc([N+](=O)[O-])cc1,22.6 µM,–
Cc1ccccc1-n1c(=O)c2ncn(CCCl)c2n(-c2ccccc2C)c1=S,> 100 µM,–

# Tested on: UACC-257 melanoma
# Assay: growth of human tumour cells (NCI), 48 h
SMILES,TGI,GI50 [µM]
CC(=O)Nc1ccc(-c2nnc(SCC(=O)Nc3ccc([N+](=O)[O-])cc3)o2)cc1,24.7 µM,–
N.N.N.N.O=[N+]([O-])[O-].[Co+3].[N-]=[N+]=[N-].[N-]=[N+]=[N-],> 100 µM,–
COC(=O)C1CCC(=O)N1C(c1ccccc1)c1ccc(OC)c(OC)c1 (configuration not stated),> 100 µM,–
Oc1cccc2c(Cl)ccnc12,12.1 µM,–
Cc1cccc(/C=N/NC(=S)Nc2ccccc2)n1,8.1 µM,–
N#CC1=C(N)N(c2ccccc2)C(c2ccco2)C1(C#N)C#N (configuration not stated),37.2 µM,–
Cc1cc(=O)[nH]c(NN2C(Cl)C(=O)C2c2ccccc2O)n1 (configuration not stated),> 100 µM,–
CC(C)c1ccc(/C=C2/C=C(c3ccc4ccccc4c3)OC2=O)cc1,59.2 µM,–
COc1ccc(/C=C2\CCC(C)C3=C2NC(=S)NC3c2ccc(OC)c(OC)c2)cc1OC (configuration not stated),> 31.6 µM,–
COc1ccc2c(=O)c(O)c(-c3ccc(OC)c(OC)c3)oc2c1,> 100 µM,–
COc1ccc(C(OCC2OC(n3cc(C)c(=O)[nH]c3=O)CC2n2cc(Cn3cc(I)c(=O)[nH]c3=O)nn2)(c2ccccc2)c2ccccc2)cc1 (configuration not stated),> 100 µM,–
C=C(C1=CC(=O)C(C)(C)O1)[C@@H]1CC=C([C@@H]2CC[C@H]3[C@@]2(C)CC[C@H]2C(C)(C)C(=O)[C@H](O)C[C@]32C)[C@H](O)O1,4.52 µM,–
CC1=CC2C(O1)C1C(=O)C=CC(=O)C1=CC2[N+](=O)[O-] (configuration not stated),33.7 µM,–
C=C(Br)C(C)(Cl)CCC(Br)C(C)(C)Cl (configuration not stated),85 µM,–
Cc1c2cnccc2c(C)c2c1c1ccccc1n2CCCN,2.32 µM and 1.92 µM,0.633
O=C(CCC(=O)c1ccc(Cl)cc1)NO,> 100 µM,–
COc1c(C)c(C/C=C(\C)CCCCO[Si](c2ccccc2)(c2ccccc2)C(C)(C)C)c(OC)c(OC)c1OC,> 46.4 µM,–
CN1CCN([C@H]2C[C@H]3[C@@H]4CC=C5C[C@@H](O)CC[C@]5(C)[C@H]4CC[C@]3(C)C2=O)CC1,> 100 µM,–
COc1ccc(C2c3cc4c(cc3OC(NNS(=O)(=O)c3ccc(C)cc3)C2C)OCO4)cc1 (configuration not stated),> 100 µM,–
CNC(=O)OCC1=C(COC(=O)NC)C(C)N(c2ccc(OC)cc2)C1 (configuration not stated),> 100 µM,–
CCC12C=CCN3CCC4(C(=C(C(=O)OC)[C@@H]1O)Nc1ccccc14)C32 (some centres not stated),3.42 µM,–
O=C(O)CN(CC(=O)O)C1CCCCC1N(CC(=O)O)CC(=O)NCCN=C=S (configuration not stated),> 100 µM,–
Cc1nc(C(N)=S)sc1/C(CC(=O)C(=O)Nc1cccc2ccc(O)cc12)=N\NC(=O)c1ccncc1,> 100 µM,–
Cc1cc(O)c2c(=O)c3ccccc3[nH]c2c1,54.2 µM,–
N=c1n(C(=O)N2CCCC2)c2cc(Cl)ccc2n1C1=NCCN1,> 100 µM,–
COc1nc(N)c(C(=O)CCl)c(=O)n1C,31.3 µM,–
[N-]=[N+]=Nc1cc(=O)oc2ccccc12,> 100 µM,–
Nc1cccc2cc(Cl)cnc12,> 100 µM,–
C=C1c2nc3ccccc3n2C=C(c2ccccc2)N1c1ccc([N+](=O)[O-])cc1,63.4 µM,–
Cc1ccccc1-n1c(=O)c2ncn(CCCl)c2n(-c2ccccc2C)c1=S,> 100 µM,–
